Data: patent US20230027066A1 (Urovant Sciences GmbH, priority 2019, published 2023)
Where two headings read alike, the source gives them in different places.

Experiments:
[1] = molecular target: CYP2D6 (Homo sapiens, UniProt P10635); assay: drug interaction study of vibegron and metoprolol succinate (moderately sensitive CYP2D6 substrate); format: in vivo; design: from tissue; host or cells: in vivo, healthy adult human subjects (endogenous enzyme)
[2] = QT Study/Label April 2018, cited from earlier work
[3] = human, plasma, metoprolol 100 mg alone
[4] = metoprolol 100 mg, vibegron 75 mg
[5] = 50 mg repeat-dose, healthy subjects

Chain of CYP2D6 (P10635 whole entry): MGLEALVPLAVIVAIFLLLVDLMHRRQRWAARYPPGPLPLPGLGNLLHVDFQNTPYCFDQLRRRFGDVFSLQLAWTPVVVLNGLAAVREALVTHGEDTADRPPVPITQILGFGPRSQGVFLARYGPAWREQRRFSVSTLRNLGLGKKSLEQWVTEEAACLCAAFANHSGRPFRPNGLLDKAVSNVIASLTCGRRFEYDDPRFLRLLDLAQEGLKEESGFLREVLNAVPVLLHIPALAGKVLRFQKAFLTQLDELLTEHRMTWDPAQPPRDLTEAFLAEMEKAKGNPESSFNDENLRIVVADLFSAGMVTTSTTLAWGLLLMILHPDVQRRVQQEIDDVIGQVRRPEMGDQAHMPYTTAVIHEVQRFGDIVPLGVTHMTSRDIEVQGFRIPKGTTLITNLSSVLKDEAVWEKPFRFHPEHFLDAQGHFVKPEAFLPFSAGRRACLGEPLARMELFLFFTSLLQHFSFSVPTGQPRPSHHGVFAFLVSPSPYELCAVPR

| AUC(0-inf) [1, 3] [ng·h/mL] | Cmax [1, 3] [ng/mL] | half-life ([1]; human, plasma, metoprolol 100 mg alone, read-out: t1/2, GM (% CV) (converted)) [h] | AUC0-∞, ratio of GLS mean metoprolol + vibegron/metoprolol alone [1, 4] | Cmax, ratio of GLS mean metoprolol + vibegron/metoprolol alone [1, 4] | Structure (SMILES) | SBP change 24-hour average, placebo adjusted [2, 5] | SBP change Maximum mean, placebo adjusted [2, 5] | SBP change 24-hour average, placebo adjusted ([2]; 100 mg repeat-dose, healthy subjects) | SBP change 24-hour average, placebo adjusted ([2]; 200 mg repeat-dose, healthy subjects) | HR change Maximum mean, placebo adjusted ([2]; first of doses 50, 100, 200 mg repeat-dose (doses from the Doses line)) [bpm] | HR change Maximum mean, placebo adjusted ([2]; second of doses 50, 100, 200 mg repeat-dose (doses from the Doses line)) [bpm] | HR change Maximum mean, placebo adjusted ([2]; third of doses 50, 100, 200 mg repeat-dose (doses from the Doses line)) [bpm] |
| --- | --- | --- | --- | --- | --- | --- | --- | --- | --- | --- | --- | --- |
| 384 | 21.9 | 9.5 | 1.40 | 1.49 | COCCc1ccc(OCC(O)CNC(C)C)cc1 (stereo not drawn) [Metoprolol, metoprolol succinate] |  |  |  |  |  |  |  |
|  |  |  |  |  | Nc1nc(CC(=O)Nc2ccc(CCNC[C@H](O)c3ccccc3)cc2)cs1 [Mirabegron, mirabegron] | +3.0 mmHg | Maximum mean +4.0 mmHg | +5.5 mmHg | +9.7 mmHg | 6.7 | 11 | 17 |
